The source of these data is patent US12157741B2, “Macrocyclic inhibitors of DYRK1A” (DANA-FARBER CANCER INSTITUTE, INC., priority 2018, dated 2024).

Assay [1] has as its target various enzymes (Homo sapiens, UniProt P49336). The note with it: CDK8; 1 uM.
Protocol: (§1) Ambit profiling from Eurofins (formerly Discoverx) was conducted in accordance with the manufacturer's instructions.
In assay [2] the target is various enzymes (Homo sapiens, UniProt Q14004). The note with it: CDC2L5; 1 uM.
Protocol: as §1
Assay [3] has as its target T1, various enzymes (Homo sapiens, UniProt Q8IVH8).
T1 sequence (Q8IVH8 1-894): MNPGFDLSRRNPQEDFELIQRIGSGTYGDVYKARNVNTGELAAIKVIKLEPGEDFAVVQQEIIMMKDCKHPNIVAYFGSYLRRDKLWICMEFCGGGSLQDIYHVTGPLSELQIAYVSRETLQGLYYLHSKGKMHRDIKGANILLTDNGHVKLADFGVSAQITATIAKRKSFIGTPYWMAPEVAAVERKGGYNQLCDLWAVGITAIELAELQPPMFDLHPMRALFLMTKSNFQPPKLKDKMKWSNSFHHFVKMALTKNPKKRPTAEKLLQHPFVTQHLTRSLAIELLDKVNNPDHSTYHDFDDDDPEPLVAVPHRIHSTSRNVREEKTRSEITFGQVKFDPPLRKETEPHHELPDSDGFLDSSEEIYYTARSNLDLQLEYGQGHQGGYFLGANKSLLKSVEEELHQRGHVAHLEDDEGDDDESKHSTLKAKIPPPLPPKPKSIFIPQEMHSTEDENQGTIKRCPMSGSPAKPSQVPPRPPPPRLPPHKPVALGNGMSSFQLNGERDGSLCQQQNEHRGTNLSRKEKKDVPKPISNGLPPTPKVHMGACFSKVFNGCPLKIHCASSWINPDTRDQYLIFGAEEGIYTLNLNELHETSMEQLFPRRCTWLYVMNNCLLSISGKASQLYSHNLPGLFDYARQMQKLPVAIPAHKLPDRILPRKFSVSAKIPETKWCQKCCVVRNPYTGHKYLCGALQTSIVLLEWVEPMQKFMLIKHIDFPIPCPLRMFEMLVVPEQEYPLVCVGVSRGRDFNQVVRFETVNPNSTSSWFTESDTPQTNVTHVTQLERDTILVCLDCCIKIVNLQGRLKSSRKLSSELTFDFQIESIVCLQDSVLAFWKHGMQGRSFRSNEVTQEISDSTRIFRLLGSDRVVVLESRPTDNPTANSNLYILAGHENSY
The following applies: MAP4K3; 1 uM.
Protocol: as §1

Assay [4] deals with T2, various enzymes (Homo sapiens, UniProt Q13043).
T2 sequence (Q13043 1-487): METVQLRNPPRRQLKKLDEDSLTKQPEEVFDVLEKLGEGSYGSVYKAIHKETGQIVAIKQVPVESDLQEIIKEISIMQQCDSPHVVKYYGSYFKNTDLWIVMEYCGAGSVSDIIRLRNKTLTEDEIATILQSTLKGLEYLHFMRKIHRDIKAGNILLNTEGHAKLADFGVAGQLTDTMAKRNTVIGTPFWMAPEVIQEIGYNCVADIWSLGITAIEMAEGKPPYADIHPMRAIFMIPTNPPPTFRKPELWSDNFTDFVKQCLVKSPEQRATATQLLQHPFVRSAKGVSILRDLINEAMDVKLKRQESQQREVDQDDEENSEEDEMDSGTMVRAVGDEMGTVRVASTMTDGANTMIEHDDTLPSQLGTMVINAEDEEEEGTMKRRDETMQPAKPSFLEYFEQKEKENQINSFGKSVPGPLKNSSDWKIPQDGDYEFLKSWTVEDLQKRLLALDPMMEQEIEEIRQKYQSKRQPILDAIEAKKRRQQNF
The following applies: MST1; 1 uM.
Protocol: as §1

In assay [5] the target is various enzymes (Homo sapiens, UniProt P54756). The note with it: EPHA5; 1 uM.
Chain of various enzymes (Homo sapiens, UniProt P54756) (P54756 25-1037): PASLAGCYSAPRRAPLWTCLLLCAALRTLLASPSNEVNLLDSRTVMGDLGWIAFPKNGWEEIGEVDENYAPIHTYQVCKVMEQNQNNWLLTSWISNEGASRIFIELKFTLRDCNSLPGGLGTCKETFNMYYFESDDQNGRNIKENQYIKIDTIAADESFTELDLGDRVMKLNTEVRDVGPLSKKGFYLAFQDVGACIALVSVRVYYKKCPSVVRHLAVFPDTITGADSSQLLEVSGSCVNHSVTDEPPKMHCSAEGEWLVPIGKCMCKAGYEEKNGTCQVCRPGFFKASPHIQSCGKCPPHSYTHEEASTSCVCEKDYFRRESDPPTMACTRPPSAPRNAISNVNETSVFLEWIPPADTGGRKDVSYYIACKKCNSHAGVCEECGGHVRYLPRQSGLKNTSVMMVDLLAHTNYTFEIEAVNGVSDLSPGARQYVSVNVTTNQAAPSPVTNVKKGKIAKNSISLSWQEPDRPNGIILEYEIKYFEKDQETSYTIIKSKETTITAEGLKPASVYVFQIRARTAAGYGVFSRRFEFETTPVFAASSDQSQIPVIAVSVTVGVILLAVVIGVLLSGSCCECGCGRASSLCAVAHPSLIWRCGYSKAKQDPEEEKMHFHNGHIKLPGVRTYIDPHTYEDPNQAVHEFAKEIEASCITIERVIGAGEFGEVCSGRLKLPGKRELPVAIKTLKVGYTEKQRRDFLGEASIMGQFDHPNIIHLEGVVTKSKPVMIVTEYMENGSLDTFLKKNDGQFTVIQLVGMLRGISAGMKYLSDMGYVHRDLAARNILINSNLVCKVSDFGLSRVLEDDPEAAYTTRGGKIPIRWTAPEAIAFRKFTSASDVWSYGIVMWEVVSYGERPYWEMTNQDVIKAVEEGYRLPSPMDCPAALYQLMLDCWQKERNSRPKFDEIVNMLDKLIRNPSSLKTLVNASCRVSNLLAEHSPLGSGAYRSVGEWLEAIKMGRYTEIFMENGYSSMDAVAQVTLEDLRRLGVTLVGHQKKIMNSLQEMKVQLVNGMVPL
Protocol: as §1
Assay [6] addresses various enzymes (Homo sapiens, UniProt O15075). The note with it: DCAMKL1; 1 uM.
Protocol: as §1
The target in assay [7] is various enzymes (Homo sapiens, UniProt Q9BWU1). The following applies: CDK11; 1 uM.
Protocol: as §1
Assay [8] concerns the target various enzymes (Homo sapiens, UniProt P53779). The note with it: JNK3; 1 uM.
Protocol: as §1
The target of assay [9] is various enzymes (Homo sapiens, UniProt P57059). The following applies: SIK; 1 uM.
Chain of various enzymes (Homo sapiens, UniProt P57059) (P57059 whole entry): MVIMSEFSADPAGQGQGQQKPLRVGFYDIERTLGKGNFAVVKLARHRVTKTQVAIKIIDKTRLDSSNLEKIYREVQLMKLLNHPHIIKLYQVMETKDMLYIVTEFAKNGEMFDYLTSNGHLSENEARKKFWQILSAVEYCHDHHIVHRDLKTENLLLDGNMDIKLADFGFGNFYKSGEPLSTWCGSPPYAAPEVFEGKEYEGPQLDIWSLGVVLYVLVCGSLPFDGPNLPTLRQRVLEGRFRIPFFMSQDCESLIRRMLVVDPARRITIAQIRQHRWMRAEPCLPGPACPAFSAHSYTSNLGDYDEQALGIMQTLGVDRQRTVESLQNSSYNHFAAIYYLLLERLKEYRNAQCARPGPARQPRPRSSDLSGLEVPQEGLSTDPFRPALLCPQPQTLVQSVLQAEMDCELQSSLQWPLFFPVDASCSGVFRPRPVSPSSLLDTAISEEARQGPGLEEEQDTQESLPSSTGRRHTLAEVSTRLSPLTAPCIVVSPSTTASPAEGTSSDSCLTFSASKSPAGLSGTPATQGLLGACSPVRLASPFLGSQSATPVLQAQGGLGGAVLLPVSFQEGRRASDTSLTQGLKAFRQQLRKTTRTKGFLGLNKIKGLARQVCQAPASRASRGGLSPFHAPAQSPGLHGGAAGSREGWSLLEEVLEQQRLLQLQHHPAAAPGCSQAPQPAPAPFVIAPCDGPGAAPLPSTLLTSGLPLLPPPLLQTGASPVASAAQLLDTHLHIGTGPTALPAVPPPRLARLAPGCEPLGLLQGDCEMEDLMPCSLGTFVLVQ
Protocol: as §1
Assay [10] concerns the target T3, various enzymes (Homo sapiens, UniProt P36888).
T3 sequence (P36888 1-993): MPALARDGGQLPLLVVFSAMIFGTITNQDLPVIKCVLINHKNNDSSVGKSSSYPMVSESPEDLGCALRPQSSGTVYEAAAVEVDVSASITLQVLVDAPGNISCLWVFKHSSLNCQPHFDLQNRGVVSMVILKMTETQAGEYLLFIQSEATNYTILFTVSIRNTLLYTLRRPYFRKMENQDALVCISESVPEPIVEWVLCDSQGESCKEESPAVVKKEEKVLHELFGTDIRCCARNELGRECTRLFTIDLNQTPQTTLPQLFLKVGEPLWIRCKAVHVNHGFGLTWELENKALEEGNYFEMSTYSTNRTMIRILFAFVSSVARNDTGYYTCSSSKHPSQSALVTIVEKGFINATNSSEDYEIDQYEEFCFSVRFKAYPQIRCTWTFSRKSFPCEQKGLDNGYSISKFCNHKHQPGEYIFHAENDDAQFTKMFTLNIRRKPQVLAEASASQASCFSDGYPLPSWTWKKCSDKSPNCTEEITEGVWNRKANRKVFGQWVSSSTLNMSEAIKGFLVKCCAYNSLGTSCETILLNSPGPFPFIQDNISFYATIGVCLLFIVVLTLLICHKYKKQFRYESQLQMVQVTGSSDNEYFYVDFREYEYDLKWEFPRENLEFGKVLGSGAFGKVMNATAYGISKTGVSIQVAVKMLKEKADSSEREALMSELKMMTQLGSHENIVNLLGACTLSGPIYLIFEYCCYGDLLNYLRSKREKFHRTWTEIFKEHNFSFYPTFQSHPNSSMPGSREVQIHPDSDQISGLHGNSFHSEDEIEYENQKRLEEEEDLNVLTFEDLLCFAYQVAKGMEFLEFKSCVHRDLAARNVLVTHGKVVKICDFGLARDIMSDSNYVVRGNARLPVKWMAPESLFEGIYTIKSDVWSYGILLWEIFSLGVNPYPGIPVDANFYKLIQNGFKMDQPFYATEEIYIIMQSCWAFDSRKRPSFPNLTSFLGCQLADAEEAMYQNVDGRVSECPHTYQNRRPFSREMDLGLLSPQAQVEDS
Type of assay: binding. The arrangement: other: FLT3(ITD); 1 uM; other: compound 1 uM. The following applies: compound 1 uM. Here is the method:
Ambit profiling was conducted in accordance with the manufacturer's instructions.

SMILES strings stand for the structures.

Chain of various enzymes (Homo sapiens, UniProt P53779) (P53779 whole entry): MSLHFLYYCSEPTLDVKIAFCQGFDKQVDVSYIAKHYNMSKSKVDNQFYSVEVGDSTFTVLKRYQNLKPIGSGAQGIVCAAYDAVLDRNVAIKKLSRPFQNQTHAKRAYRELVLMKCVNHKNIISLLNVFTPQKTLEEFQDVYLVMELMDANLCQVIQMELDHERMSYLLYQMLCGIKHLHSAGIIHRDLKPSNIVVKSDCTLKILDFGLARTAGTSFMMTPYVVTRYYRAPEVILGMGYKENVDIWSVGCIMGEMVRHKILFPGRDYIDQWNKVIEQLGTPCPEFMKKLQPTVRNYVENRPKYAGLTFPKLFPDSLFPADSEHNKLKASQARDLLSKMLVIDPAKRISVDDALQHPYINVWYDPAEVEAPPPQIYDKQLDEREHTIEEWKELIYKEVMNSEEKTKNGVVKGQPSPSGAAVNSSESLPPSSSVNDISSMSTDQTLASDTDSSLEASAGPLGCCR
Chain of various enzymes (Homo sapiens, UniProt P49336) (P49336 whole entry): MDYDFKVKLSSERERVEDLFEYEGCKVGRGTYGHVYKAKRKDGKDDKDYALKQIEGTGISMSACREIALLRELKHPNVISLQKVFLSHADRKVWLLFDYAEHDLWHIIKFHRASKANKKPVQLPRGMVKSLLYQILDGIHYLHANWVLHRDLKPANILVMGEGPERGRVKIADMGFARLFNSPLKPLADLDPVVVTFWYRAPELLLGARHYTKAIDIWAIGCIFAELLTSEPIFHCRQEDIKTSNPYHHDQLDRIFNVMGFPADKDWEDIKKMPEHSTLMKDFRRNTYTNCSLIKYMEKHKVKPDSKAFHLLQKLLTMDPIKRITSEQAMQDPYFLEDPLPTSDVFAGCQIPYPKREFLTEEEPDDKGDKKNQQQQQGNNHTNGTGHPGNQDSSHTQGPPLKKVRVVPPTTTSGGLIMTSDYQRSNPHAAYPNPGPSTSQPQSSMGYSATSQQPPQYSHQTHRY
Chain of various enzymes (Homo sapiens, UniProt O15075) (O15075 whole entry): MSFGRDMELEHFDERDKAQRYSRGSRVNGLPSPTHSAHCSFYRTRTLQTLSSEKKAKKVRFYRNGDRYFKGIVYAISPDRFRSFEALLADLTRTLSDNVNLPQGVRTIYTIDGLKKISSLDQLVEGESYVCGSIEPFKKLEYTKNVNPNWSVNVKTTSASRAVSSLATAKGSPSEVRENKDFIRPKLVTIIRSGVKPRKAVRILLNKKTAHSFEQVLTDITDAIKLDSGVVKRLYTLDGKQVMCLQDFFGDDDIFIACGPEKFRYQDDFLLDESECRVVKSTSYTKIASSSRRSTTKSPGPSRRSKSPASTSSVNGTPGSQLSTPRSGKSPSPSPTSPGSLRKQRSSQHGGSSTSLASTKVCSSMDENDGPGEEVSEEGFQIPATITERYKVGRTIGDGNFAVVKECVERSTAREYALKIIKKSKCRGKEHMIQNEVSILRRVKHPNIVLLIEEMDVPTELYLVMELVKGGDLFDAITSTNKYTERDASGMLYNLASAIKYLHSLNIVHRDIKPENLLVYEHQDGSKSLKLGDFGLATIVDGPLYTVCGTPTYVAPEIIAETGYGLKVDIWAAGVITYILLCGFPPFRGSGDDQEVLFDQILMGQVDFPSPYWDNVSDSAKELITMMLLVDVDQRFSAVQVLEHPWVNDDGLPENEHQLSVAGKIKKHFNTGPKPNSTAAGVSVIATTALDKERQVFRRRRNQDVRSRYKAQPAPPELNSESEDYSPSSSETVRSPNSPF
Chain of various enzymes (Homo sapiens, UniProt Q14004) (Q14004 whole entry): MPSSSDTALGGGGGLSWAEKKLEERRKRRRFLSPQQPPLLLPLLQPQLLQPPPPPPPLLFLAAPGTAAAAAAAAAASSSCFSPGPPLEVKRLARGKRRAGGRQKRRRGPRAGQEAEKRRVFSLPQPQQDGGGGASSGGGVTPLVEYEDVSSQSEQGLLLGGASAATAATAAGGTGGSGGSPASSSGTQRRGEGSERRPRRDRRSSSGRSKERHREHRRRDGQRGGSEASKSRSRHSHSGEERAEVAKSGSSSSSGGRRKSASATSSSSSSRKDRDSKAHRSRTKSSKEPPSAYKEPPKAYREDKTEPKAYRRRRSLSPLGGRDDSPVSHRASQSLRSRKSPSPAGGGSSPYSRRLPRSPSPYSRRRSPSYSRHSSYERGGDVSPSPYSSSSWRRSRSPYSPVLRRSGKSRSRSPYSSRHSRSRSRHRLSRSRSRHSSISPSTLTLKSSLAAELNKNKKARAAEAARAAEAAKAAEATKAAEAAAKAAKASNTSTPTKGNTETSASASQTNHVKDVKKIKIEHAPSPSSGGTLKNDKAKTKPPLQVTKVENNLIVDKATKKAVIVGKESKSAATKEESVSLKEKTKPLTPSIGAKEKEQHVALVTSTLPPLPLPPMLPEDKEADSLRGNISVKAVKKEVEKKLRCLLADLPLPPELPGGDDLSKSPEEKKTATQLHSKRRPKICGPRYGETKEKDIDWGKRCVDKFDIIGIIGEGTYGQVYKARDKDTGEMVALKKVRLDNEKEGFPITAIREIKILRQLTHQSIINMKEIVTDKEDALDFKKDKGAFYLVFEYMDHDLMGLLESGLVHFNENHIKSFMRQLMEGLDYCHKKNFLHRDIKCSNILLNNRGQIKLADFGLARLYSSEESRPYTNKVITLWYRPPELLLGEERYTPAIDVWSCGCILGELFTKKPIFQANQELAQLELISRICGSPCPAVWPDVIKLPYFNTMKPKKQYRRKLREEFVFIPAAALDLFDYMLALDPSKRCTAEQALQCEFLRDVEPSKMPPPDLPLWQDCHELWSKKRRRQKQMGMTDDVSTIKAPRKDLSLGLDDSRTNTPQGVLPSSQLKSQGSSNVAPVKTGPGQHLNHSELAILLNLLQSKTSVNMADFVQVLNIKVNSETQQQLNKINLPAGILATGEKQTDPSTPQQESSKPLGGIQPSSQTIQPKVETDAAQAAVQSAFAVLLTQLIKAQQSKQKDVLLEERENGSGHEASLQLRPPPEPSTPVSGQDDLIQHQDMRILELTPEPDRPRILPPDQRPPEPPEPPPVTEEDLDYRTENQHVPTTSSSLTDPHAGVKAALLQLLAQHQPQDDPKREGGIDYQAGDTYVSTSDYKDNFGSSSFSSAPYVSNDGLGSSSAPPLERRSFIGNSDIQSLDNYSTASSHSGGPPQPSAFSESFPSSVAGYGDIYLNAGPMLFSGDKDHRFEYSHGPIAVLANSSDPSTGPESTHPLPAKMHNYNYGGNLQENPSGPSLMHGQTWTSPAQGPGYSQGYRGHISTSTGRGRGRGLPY

`CN1Cc2nn(C)cc2-c2cnc3[nH]cc(c3c2)-c2cnn(c2)CCCC1=O` [Compound 41, (Z)-31,5-dimethyl-11H,21H,31H-5-aza-2(3,5)-pyrrolo[2,3-b]pyridina-1(4,1),3(4,3)-dipyrazolacyclononaphan-6-one]: the Ambit profiling on various enzymes [1] was 100; on various enzymes [2], 100; at various enzymes [3], 7.8; at various enzymes [4] it was 4.7; on various enzymes [5] it was 58; at various enzymes [6], 65. Besides, the Ambit profiling on various enzymes [7] is 84; on various enzymes [8], 0.75; at various enzymes [9] it was 84.
In the case of `CC(C)N1Cc2nn(C)cc2-c2cnc3[nH]cc(c3c2)-c2cn(nc2C(F)(F)F)CCCC1=O` [Compound 45, (Z)-5-isopropyl-31-methyl-13-(trifluoromethyl)-11H,21H,31H-5-aza-2(3,5)-pyrrolo[2,3-b]pyridina-1(4,1),3(4,3)-dipyrazolacyclononaphan-6-one], the “Ambit profiling: FLT3(ITD)” value at various enzymes [10] is 0.3.
`CN1Cc2nn(C)c(C#N)c2-c2cnc3[nH]cc(c3c2)-c2cn(nc2C(F)(F)F)CCCC1=O` [Compound 48, (Z)-31,5-dimethyl-6-oxo-13-(trifluoromethyl)-11H,21H,31H-5-aza-2(3,5)-pyrrolo[2,3-b]pyridina-1(4,1),3(4,3)-dipyrazolacyclononaphane-35-carbonitrile]: the Ambit profiling at various enzymes [1] is 100; on various enzymes [2], 87; at various enzymes [3], 77; on various enzymes [4] it was 100; at various enzymes [5] it was 97; on various enzymes [6] it was 92. Besides, the Ambit profiling at various enzymes [7] was determined as 100; at various enzymes [8], 14; at various enzymes [9] it was 59.
In the case of `COc1c2c(nn1C)CN(C(C)C)C(=O)CCCn1cc(c(C(F)(F)F)n1)-c1c[nH]c3ncc-2cc13` [Compound 50, (Z)-5-isopropyl-35-methoxy-31-methyl-13-(trifluoromethyl)-11H,21H,31H-5-aza-2(3,5)-pyrrolo[2,3-b]pyridina-1(4,1),3(4,3)-dipyrazolacyclononaphan-6-one], the “Ambit profiling: FLT3(ITD)” value on various enzymes [10] turned out to be 0.35.
